As usually defined, the MIC is the least concentration at which growth counts as inhibited. A word on the IC50: it is the midpoint of a concentration-inhibition curve. For orientation: EC50 means the concentration that produces a half-maximal response.

Structures are written as SMILES. In brackets after ≈: the same amount, converted by molar mass.

Assay [1] relates to Micrococcus luteus. Kind of assay: Antimicrobial activity against Sarcina lutea assessed as microbial growth inhibition. Format: functional.
In assay [2] the test system is Corynebacterium xerosis. Kind of assay: Antimicrobial activity against Corynebacterium xerosis assessed as microbial growth inhibition. Format: functional.
Assay [3] relates to Mycobacterium tuberculosis. Kind of assay: Antibacterial activity against […] assessed as bacterial growth inhibition. Format: functional.
Assay [4] relates to Staphylococcus aureus. Kind of assay: Antibiofilm activity against Staphylococcus aureus ATCC 25923 assessed as inhibition of biofilm formation incubated for 24 hrs by crystal violet method. The note with it: ATCC 25923, 24 h. Format: functional, organism-based.
Assay [5] relates to Pseudomonas aeruginosa. Kind of assay: Antibiofilm activity against Pseudomonas aeruginosa assessed as inhibition of biofilm formation incubated for 24 hrs by crystal violet method. Format: functional, organism-based.
Assay [6] concerns Candida albicans. Kind of assay: Antifungal activity against Candida albicans assessed as fungal growth inhibition. Format: functional, organism-based.
In assay [7] the test system is Cryptococcus neoformans. Kind of assay: Antifungal activity against Cryptococcus neoformans assessed as fungal growth inhibition. Format: functional, organism-based.
In assay [8] the test system is Trichophyton mentagrophytes. Kind of assay: Antifungal activity against Trichophyton mentagrophytes assessed as fungal growth inhibition. Format: functional, organism-based.
The subject of assay [9] is Aspergillus niger. Kind of assay: Antifungal activity against Aspergillus niger assessed as fungal growth inhibition. Format: functional, organism-based.
Assay [10] deals with Staphylococcus aureus. Kind of assay: Antibiofilm activity against Methicillin-resistant Staphylococcus aureus B1 assessed as inhibition of biofilm formation measured after 24 to 48 hrs by MTT assay. Format: functional. To be noted: time 24-48 hrs. A general note: Formazan colour is commonly taken as a measure of viable cells.
The test system of assay [11] is Enterococcus faecalis. Kind of assay: Antibiofilm activity against Vancomycin-resistant Enterococcus faecalis W1 assessed as inhibition of biofilm formation measured after 24 to 48 hrs by MTT assay. Format: functional. To be noted: time 24-48 hrs.
In assay [12] the test system is Escherichia coli. Kind of assay: Antibacterial activity against Escherichia coli assessed as bacterial growth inhibition by agar dilution method. Format: functional. For orientation: Agar dilution tests growth on a series of plates holding different concentrations.
Assay [13] concerns Klebsiella aerogenes. Kind of assay: Antibacterial activity against Enterobacter aerogenes assessed as bacterial growth inhibition by agar dilution method. Format: functional.
For assay [14], the system named is Vibrio natriegens. Kind of assay: Antimicrobial activity against Vibrio natriegens ATCC 14048 assessed as microbial growth inhibition incubated for 48 hrs by spectrophotometry. Format: functional.
The subject of assay [15] is Vibrio natriegens. Kind of assay: Antimicrobial activity against Vibrio natriegens ATCC 14048 assessed as inhibition of bacterial adhesion incubated for 48 hrs by crystal staining method. Format: functional.
Assay [16] deals with Candida albicans. Kind of assay: Antifungal activity against Candida albicans ATCC 2091 assessed as fungal growth inhibition incubated for 24 hrs by agar diffusion method. Format: functional. (In agar diffusion tests the substance spreads into inoculated agar from a disc or well.)
Assay [17] concerns Staphylococcus aureus. Kind of assay: Antibacterial activity against Staphylococcus aureus ATCC 6538 assessed as bacterial growth inhibition incubated for 24 hrs by agar diffusion method. Format: functional.
The test system of assay [18] is Pseudomonas aeruginosa. Kind of assay: Antibacterial activity against Pseudomonas aeruginosa ATCC 9027 assessed as bacterial growth inhibition incubated for 24 hrs by agar diffusion method. Format: functional.
The test system of assay [19] is Candida albicans. Kind of assay: Antimicrobial activity against Candida albicans assessed as microbial growth inhibition measured after 24 hrs by agar dilution method. Format: functional.
Assay [20] concerns Acinetobacter baumannii. Kind of assay: Antibacterial activity against Acinetobacter baumannii ATCC 19606 assessed as bacterial growth inhibition incubated for 24 hrs by broth micro dilution method. Format: functional.
The test system of assay [21] is Staphylococcus aureus. Kind of assay: Antimicrobial activity against methicillin-resistant Staphylococcus aureus assessed as microbial growth inhibition by broth microdilution method. Format: functional.
Assay [22] concerns Hepatitis C virus. Kind of assay: Antiviral activity against HCV J8CC infected in human Huh7.5 cells assessed as viral growth inhibition incubated for 48 hrs by light microscopy. Format: functional, organism-based, Hepacivirus hominis. To be noted: Huh7.5, 48 h.

Regarding `O=C1N=C(C(=O)c2c[nH]c3ccc(Br)cc23)N/C1=C\c1c[nH]c2ccccc12`, the minimal inhibitory concentration (MIC) in [1] and in assay [2] was 36.9 µM (≈ 16 µg/mL) in each case.

Consider `C=CC(C)(C)c1[nH]c2ccccc2c1/C=c1\[nH]c(=O)c2n(c1=O)CCC=2C1=c2c(=O)[nH]/c(=C\c3c(C(C)(C)C=C)[nH]c4ccccc34)c(=O)n2CC1`, for which, in [3], the MIC worked out at 9 µM (≈ 6.24 µg/mL).

Regarding `COCCn1cc(-c2nc(-c3cn(C)c4ccccc34)cs2)c2cc(F)ccc21`, the half-maximal inhibitory concentration (IC50) in [4] is 0.4 µM.

Regarding `Cn1cc(-c2csc(-c3cn(CCN)c4ccc(F)cc34)n2)c2ccccc21`, in assay [5], the 50% inhibitory concentration (IC50) is 9.9 µM.

In the case of `O=C(O)[C@@H]1Cc2c[nH]c3ccc4oc5nc6ccc(O)cc6c-5c(c4c23)N1`, the half-maximal inhibitory concentration (IC50) in assay [6] turned out to be 2.8 µM; in assay [7] it was 11.1 µM.

As to `Oc1ccc2nc3oc4ccc5[nH]cc6cc[nH]c(c-3c2c1)c4c65`, the IC50 came to 3.2 µM in assay [6], 6.4 µM in assay [7], 51.1 µM in assay [8] and 12.8 µM in assay [9].

For the molecule `CC(C)[C@@H]1NC(=O)[C@@H](C[C@]2(O)c3ccccc3N3C(=O)[C@@H](C)N[C@H]32)n2c1nc1ccccc1c2=O`, the BIC came to 202.7 µM in assay [10] and 168.9 µM in [11].

`CC(C)[C@H]1NC(=O)[C@@H]2CC3(C45C[C@H]6C(=O)N[C@H](C(C)C)C(=O)N6[C@H]4Nc4ccccc45)c4ccccc4N[C@@H]3N2C1=O` (some centres undefined): the MIC in assay [12] and in assay [13] was 44 µM (≈ 25 µg/mL) each time.

On to `O=C1NC(C(=O)c2c[nH]c3ccc(O)cc23)c2c(O)ccc3[nH]cc(c23)C1=O` (centres undefined), for which the IC50 in [8] was 42.6 µM; in assay [9], 21.3 µM.

With `Cn1cnc(C(=O)c2nc3c4c5c(nccc5c(C(C[N+](C)(C)C)c5c[nH]c6cc(Br)ccc56)c3o2)C=CN4)c1` (centres undefined), in [9], the minimum inhibitory concentration (MIC) was 26.8 µM.

Turning to `C/N=C1\NC(Cc2c[nH]c3cc(Br)ccc23)C(=O)N1C` (centres undefined), the figures for the minimal inhibitory concentration (MIC) in assay [14] and in assay [15] were 0.03 µM (≈ 0.0101 µg/mL) and 298 µM (≈ 100 µg/mL), respectively.

For the molecule `Cn1cc(C(=O)c2nc(C(=O)O)cc3c2[nH]c2ccc(O)cc23)[n+](C)c1`, the IC50 in [6] came to 45.7 µM; in [7] it was 11.4 µM; in [8], 45.7 µM; in assay [9], 22.8 µM.

In the case of `NC(=O)c1c(-c2c[nH]c3cc(O)ccc23)ncc2[nH]c3ccc(O)cc3c12`, the “diameter of the inhibition zone (DIZ)” value in assay [16] stood at 9 mm; in assay [17], 10 mm; in [18], 7 mm.

`C[N+](C)(C)CC(c1c[nH]c2ccccc12)c1c(O)c(O)c2c3c(nccc13)C=CN2` (centres undefined): the concentration for half-maximal inhibition (IC50) in assay [6] stood at 19.9 µM.

Regarding `CC(=O)[C@H]1N=C(c2c[nH]c3ccc(O)cc23)c2c(O)ccc3[nH]cc(c23)[C@H]1O`, the half-maximal inhibitory concentration (IC50) in assay [9] worked out at 85.2 µM.

As for `O=C1N[C@H]2c3nc4ccccc4c(=O)n3[C@H]1C[C@@]1(O)c3ccccc3N3C(=O)C4(CC4)N2[C@@H]31`, the MIC in assay [19] was 22.6 µM (≈ 9.98 µg/mL).

Take `C[C@@H]1N[C@H]2N(C1=O)c1ccccc1[C@@]2(O)C[C@H](C(=O)O)n1cnc2ccccc2c1=O`: in assay [20], the MIC worked out at 14.9 µM (≈ 6.26 µg/mL).

Turning to `O=C(C1=N[C@@H](c2c[nH]c3cc(Br)ccc23)CN1)c1c[nH]c2ccccc12`, in assay [21], the MIC turned out to be 15.4 µM (≈ 6.27 µg/mL).

Turning to `COc1ccc2[nH]c3cnc(-c4c[nH]c5cc(O)ccc45)c(C(=O)O)c3c2c1`, the “diameter of the inhibition zone (DIZ)” value in [16] turned out to be 9 mm; in assay [17], 10 mm; in assay [18], 7 mm.

As for `O=C(c1c[nH]c2ccc(O)cc12)[C@H](O)[C@@H](O)C(=O)c1c[nH]c2ccc(O)cc12`, the IC50 was 42.1 µM in [8] and 21 µM in assay [9].

As to `Cn1c[n+](C)c(C(=O)c2nc(C(=O)O)cc3c2[nH]c2ccc(O)cc23)c1[S+](C)[O-]` (centres undefined), the IC50 in assay [6] is 4.8 µM.

Consider `CC1(C)C(=O)N2c3ccccc3[C@@]3(C[C@H]4n5c(nc6ccccc6c5=O)C(=O)C(C)(C)[C@@]4(O)O3)[C@@H]2N1S(C)(=O)=O`, for which the EC50 in assay [22] was found to be 110 µM.
